For one compound, IC50 results are on record in patent US5538950A, “Endothelin antagonists and their preparation” (Fujisawa Pharmaceutical Co., Ltd., priority 1991, dated 1996).

In general, pIC50 refers to the IC50 on a negative log10 scale, so that one unit is a factor of ten.

The test system of the experiment is endothelin receptor (crude receptor membrane preparation of porcine aorta). Briefly: Radioligand binding assay: 125I-endothelin-1 binding to porcine aorta membrane. Conditions: ^125 I-Endothelin-1 1.67×10^-11 M, room temperature, 60 minutes, read-out: Effect on specific binding of ^125 I-endothelin-1 in porcine aorta membrane, IC50. On the procedure: Radioligand binding assay:
(a) Crude receptor membrane preparation:
Porcine aorta was purchased from Pel-Freez Biologicals (U.S.A.) and stored at -80° C. until use.
Porcine aorta (50 g) was thawed and dissected free from fatty tissue, minced with scissors and then homogenized with a polytron (Brinkmann PT-20, maximal speed for 3×10 sec) in 100 ml buffer (0.25M sucrose, 10 mM Tris-HCl, 0.1 mM EDTA).
The homogenate was centrifuged at 10,000 g for 20 minutes at 4° C.
The supernatant, containing the plasma membrane fraction, was centrifuged at 100,000 g for 60 minutes at 4° C., and then resultant pellets were referred to as crude membrane fractions.
The pellets were resuspended in 25 ml of binding assay buffer (50 mM Tris-HCl, 100 mM NaCl, 5 mM MgCl2, 1.5 μg/ml phenylmethylsulfonyl fluoride (PMSF), 120 μg/ml bacitracin, 12 μg/ml leupepcin, 6 μg/ml chymostain, 0.1% bovine serum albumin (BSA), pH 7.5).
The aorta membrane fractions were stored at -80° C. until use.
(b) ^125 I-endothelin-1 binding assay: […]
After incubation, the incubation mixture were filtered through Glass-fiber GF/C filter (pretreated with 0.1% polyethylene imine for 3 hours prior to use) using cell harvester (Brandel M-24S). […] The filters were counted in a gamma counter (Packard Auto Gamma Model 5650).

Structures are written as SMILES. pIC50: −log10 of the molar value. Counter-ions that a name gives are not always drawn.

Take `CC(C)C[C@H](CC(=O)N1CCCCC1)C(=O)N[C@H](Cc1cn(C)c2ccccc12)C(=O)N[C@H](Cc1ccccn1)C(N)=O` [Compound A, [(2R)-2-(Piperidinocarbonyl)methyl-4-methylvaleryl]-D-TrP(Me)-D-Pya-NH2 hydrochloride]: the pIC50 is 8.28.
